Test results taken from patent US20230348487A1, “2-AMINOPYRIMIDINE COMPOUND AND PHARMACEUTICAL COMPOSITION THEREOF AND APPLICATION THEREOF” (GUANGZHOU SALUSTIER BIOSCIENCES CO., LTD., priority 2021, published 2023).
Read-outs that look alike come from different tables or passages of the source. Values belong to the compound of their own block, whether it stands above or below them.

Tests used:
[1] = tested on: human T lymphoblastic lymphoma cell line Jurkat; experiment: CCK-8 in vitro proliferation inhibition; format: cell-based; details: 72 hours, read-out: Inhibitory activity (IC50) on cell proliferation, JURKAT
Procedure: (§1) Cell lines: human chronic myeloid leukemia cell line K562, human acute myeloid leukemia cell line U937, human T lymphocyte leukemia cell line HuT78, and human T lymphoblastic lymphoma cell line Jurkat. Cells were purchased from the Chinese Academy of Sciences Stem Cell Bank or ATCC.
(§2) […] were cultured overnight and suspended cells were directly stimulated with drugs. […] Two repeats were set for each concentration, with a final volume of 200 μL. […] The absorbance values at 450 nm and 650 nm were measured using a microplate reader, and the increment Z (A450-A650) was derived. The inhibitory rate of drugs on cell growth was calculated by GraphPad Prism 8.0.0 through the following formula:
(§3) Inhibition rate (%)(ODcontrol−ODdosing)/ODcontrol×100%
(§4) The half inhibitory concentration (IC50) was calculated. Every experiment was repeated at least three times.

[2] = tested on: human T lymphocyte leukemia cell line HuT78; experiment: CCK-8 in vitro proliferation inhibition; format: cell-based; details: read-out: Inhibitory activity (IC50) on cell proliferation, HUT78
Procedure: as §1, §2, §3, §4

[3] = tested on: human acute myeloid leukemia cell line U937; experiment: CCK-8 in vitro proliferation inhibition; format: cell-based; details: read-out: Inhibitory activity (IC50) on cell proliferation, U937
Procedure: as §1, §2, §3, §4

[4] = tested on: human chronic myeloid leukemia cell line K562; experiment: CCK-8 in vitro proliferation inhibition; format: cell-based; details: read-out: Inhibitory activity (IC50) on cell proliferation, K562
Procedure: as §1, §2, §3, §4

[5] = tested on: other subtypes (JAK family); details: 1 mM ATP concentration; read-out: IC50 of the kinase, other subtypes; cited from earlier work
[6] = Rat liver microsomes stability test; format: in vitro ADME; details: for Remaining percentage: rat liver microsomes, average value
Procedure: Firstly, preheated 0.1 M potassium phosphate buffer with 5 mM MgCl2 (i.e. K/Mg buffer) at pH 7.4±0.1. Prepared the spiked solution for the tested compound and reference compound (500 μM spiked solution: added 5 μL of 10 mM stock solution into 95 μL of acetonitrile; 1.5 μM microsomal spiked solution (0.75 mg/mL): added 1.5 μL of 500 μM spiked solution and 18.75 μL of 20 mg/mL liver microsomes into 479.75 μL of K/Mg buffer). Then NADPH was dissolved in buffer K to prepare a 6 mM, 5 mg/mL NADPH stock solution. At different time points (0-, 5-, 15-, 30-, 45 minutes), 30 μL of 1.5 μM spiked solution containing 0.75 mg/mL of microsome solution was distributed onto the designated detection plate. At 0 min, 150 μL of acetonitrile containing internal standard (IS) was added to the 0 min plate well, followed by 15 μL of NADPH stock solution (6 mM). Then, all plates were pre-incubated at 37° C. for 5 minutes, added 15 μL of NADPH stock solution (6 mM), the reaction was initiated and timed. At 5 minutes, 15 minutes, 30 minutes, and 45 minutes, added 150 μL of acetonitrile solution containing IS to the corresponding wells to stop the reaction. After quenching, the plate was shaken for 10 minutes (600 rpm/min), followed by centrifugation at 6000 rpm/min for 15 minutes. 80 μL of supernatant of each well were transferred into a 96-well sample plate containing 140 μL of ultrapure water to perform LC/MS analysis. The analysis of biological samples and all samples were completed by the analysis laboratory of Medicipia Pharmaceutical Technology (Shanghai) Co., Ltd.

JAK1 = JAK1 (Homo sapiens (Human), UniProt P23458); experiment: Z′-Lyte kinase inhibitory activity test; format: biochemical; details: ATP concentration Km
Procedure: (§5) Test method: Firstly, test compounds were prepared into 10 mM stock solution with DMSO, and continuously diluted into 10 concentrations at a 3-fold gradient for later use. 5X reaction buffer was diluted with deionized water into 1×reaction buffer (50 mM HEPES pH 7.5, 0.01% Brij-35, 10 mM MgCl2, 1 mM EGTA), which was used to prepare a mixture of kinase and peptide substrate, as well as a phosphorylated peptide substrate solution. The kinase concentration was determined based on enzyme titration, and the final concentration of peptide substrate and phosphorylated peptide substrate was 2 μM. 5 μL of mixture substrate of kinase and peptide substrate was added to each well on the 384 well plate. Then 5 nL of the test compound (starting with a final concentration of 10 μM) was added with an Echo520 Sampler. […] An additional 100% phosphorylation well (5 μL phosphorylated peptide substrate solution), a 0% phosphorylated well (5 μL of a mixture of kinase and peptide substrate, without test compounds and ATP), and a 0% inhibitory well (5 μL of a mixture of kinase and peptide substrate and appropriate concentration of ATP) were set as control. Two repeats were set for each concentration. The above reaction system was incubated at 30° C. for 1.5 hours. […] 2.5 μL of the diluted mixture was added to each well and the system was incubated at 30° C. for another 1 hour. […] The substrate phosphorylation rate was obtained by calculating the ratio, and the activity of the kinase and the effect of the inhibitor on the kinase was further calculated. Every experiment was repeated at least three times.

JAK2 = JAK2 (Homo sapiens (Human), UniProt O60674); experiment: Z′-Lyte kinase inhibitory activity test; format: biochemical; details: ATP concentration Km
Procedure: as §5

JAK3 = JAK3 (Homo sapiens (Human), UniProt P52333); experiment: Z′-Lyte kinase inhibitory activity test; format: biochemical
Procedure: as §5

TYK2 = TYK2 (Homo sapiens (Human), UniProt P29597); experiment: Z′-Lyte kinase inhibitory activity test; format: biochemical; details: ATP concentration Km
Procedure: as §5

Chain of JAK3 (P52333 whole entry): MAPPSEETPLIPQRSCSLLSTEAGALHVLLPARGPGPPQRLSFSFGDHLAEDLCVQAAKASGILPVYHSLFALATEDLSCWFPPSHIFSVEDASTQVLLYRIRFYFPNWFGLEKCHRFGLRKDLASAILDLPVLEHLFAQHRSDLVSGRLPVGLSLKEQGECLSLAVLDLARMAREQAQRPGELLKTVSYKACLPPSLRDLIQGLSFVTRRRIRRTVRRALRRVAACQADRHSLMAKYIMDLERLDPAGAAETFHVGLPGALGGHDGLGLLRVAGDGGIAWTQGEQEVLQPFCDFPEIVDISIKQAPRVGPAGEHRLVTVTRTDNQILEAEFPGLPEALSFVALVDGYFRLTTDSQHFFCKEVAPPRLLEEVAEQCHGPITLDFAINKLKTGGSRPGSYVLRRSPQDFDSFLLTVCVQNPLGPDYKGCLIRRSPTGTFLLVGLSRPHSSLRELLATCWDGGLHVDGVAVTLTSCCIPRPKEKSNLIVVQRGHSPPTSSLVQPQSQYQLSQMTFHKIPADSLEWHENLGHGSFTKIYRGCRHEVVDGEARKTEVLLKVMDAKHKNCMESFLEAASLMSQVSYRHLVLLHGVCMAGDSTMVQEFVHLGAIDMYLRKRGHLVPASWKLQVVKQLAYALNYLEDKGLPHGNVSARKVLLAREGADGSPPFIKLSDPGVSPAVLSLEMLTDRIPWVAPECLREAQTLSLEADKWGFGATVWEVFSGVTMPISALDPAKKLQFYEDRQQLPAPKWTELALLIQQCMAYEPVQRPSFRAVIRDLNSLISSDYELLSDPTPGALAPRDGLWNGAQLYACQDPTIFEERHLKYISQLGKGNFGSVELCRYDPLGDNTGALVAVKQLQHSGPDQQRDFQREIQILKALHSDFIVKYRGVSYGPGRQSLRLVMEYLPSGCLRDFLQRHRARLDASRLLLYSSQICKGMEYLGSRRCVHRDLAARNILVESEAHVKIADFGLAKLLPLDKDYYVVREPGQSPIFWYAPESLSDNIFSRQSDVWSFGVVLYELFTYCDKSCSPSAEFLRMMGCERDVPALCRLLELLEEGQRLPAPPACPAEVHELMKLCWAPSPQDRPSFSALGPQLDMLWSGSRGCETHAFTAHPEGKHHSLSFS
Chain of JAK2 (O60674 whole entry): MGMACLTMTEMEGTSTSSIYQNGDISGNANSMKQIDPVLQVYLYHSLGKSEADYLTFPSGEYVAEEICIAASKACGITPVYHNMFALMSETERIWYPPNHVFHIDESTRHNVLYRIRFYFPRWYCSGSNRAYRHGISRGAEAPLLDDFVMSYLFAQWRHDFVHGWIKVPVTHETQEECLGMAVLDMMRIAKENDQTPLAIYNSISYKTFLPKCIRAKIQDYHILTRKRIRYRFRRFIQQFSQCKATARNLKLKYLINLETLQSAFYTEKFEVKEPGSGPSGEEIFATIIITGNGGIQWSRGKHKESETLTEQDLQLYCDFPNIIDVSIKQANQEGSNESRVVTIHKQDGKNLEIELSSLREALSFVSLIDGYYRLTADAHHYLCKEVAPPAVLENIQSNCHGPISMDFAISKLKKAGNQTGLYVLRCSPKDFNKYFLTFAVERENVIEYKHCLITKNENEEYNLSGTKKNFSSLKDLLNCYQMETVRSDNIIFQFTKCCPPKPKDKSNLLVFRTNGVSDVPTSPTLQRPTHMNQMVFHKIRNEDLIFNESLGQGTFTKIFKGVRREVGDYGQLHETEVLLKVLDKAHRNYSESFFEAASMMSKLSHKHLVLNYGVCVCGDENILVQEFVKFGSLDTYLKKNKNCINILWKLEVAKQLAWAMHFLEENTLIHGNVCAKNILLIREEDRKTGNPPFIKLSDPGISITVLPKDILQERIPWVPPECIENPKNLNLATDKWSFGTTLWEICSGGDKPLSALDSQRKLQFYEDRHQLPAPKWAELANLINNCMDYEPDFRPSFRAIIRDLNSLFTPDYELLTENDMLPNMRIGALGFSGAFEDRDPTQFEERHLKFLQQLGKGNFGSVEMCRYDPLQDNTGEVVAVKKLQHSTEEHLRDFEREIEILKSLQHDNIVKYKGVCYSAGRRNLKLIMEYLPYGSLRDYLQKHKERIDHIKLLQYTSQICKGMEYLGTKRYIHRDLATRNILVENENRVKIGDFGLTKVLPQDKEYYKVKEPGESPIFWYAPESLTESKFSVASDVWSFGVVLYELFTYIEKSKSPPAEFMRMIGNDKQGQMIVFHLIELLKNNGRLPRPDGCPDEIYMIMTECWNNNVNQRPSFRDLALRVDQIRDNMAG
Chain of JAK1 (P23458 whole entry): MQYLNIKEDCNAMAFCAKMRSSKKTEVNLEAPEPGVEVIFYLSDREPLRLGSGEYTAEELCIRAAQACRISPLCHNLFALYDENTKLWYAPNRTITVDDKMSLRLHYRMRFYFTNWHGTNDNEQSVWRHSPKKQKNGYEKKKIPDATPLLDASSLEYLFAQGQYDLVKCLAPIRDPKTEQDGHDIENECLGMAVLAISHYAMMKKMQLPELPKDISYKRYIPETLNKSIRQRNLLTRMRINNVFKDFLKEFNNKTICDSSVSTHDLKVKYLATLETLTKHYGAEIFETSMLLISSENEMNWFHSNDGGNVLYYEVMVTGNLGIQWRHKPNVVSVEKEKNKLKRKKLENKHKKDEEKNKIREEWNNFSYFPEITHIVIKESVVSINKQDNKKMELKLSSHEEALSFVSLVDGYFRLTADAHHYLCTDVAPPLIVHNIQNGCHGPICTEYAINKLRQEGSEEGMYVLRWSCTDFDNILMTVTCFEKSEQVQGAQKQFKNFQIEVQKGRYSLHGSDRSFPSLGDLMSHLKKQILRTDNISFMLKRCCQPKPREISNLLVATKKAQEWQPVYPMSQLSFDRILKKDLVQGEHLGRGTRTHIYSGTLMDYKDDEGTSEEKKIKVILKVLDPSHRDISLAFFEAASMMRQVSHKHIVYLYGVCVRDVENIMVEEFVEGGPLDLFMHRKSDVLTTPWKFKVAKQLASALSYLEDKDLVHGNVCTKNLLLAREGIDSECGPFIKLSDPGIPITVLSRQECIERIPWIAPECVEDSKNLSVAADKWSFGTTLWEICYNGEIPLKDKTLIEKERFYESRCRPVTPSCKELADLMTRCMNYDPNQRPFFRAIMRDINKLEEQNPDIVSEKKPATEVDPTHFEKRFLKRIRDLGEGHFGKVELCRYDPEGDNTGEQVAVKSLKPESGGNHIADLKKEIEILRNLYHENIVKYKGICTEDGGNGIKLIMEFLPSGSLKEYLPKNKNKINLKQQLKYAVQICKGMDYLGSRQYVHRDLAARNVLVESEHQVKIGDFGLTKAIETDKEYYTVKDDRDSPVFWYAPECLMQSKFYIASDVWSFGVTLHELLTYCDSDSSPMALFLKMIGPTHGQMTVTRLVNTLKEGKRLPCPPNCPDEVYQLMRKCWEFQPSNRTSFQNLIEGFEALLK
Chain of TYK2 (P29597 whole entry): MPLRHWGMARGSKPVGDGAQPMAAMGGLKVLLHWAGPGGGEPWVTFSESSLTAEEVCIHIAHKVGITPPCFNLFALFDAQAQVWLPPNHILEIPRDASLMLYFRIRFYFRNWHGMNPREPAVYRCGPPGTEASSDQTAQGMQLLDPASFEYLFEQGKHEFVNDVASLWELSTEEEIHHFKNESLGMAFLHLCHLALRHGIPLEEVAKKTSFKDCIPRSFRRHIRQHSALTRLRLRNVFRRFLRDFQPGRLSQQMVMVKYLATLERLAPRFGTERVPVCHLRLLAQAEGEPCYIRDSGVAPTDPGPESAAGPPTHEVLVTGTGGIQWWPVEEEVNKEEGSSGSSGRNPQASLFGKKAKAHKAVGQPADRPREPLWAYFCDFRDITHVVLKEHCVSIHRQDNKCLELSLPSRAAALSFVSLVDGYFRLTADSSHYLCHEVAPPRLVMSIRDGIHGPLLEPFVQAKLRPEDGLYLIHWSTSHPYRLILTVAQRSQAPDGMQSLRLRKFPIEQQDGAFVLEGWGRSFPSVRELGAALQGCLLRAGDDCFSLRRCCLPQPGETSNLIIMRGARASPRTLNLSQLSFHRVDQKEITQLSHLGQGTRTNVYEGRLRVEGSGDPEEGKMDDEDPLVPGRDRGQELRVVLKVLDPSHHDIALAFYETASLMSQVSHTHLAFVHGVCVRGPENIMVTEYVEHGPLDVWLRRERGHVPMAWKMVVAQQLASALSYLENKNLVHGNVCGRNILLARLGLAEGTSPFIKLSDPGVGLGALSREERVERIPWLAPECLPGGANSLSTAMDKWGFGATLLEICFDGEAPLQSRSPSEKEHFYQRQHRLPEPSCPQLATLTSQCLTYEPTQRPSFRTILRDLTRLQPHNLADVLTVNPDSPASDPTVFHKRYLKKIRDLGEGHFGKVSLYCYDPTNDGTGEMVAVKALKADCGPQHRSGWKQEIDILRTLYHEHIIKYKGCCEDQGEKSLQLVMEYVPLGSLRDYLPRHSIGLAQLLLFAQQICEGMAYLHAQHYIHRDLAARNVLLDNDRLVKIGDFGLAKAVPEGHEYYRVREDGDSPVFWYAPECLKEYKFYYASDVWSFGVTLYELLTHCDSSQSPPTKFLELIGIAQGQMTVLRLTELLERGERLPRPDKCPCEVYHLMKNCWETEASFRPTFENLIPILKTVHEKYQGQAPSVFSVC

IC50 [1]: > 30 µM
IC50 ([2]; 72 hours): > 30 µM
IC50 ([3]; 72 hours): 0.0195 µM
IC50 ([4]; 72 hours): > 30 µM
SMILES: C=CC(=O)N1C[C@H](Nc2ncnc3[nH]ccc23)CC[C@@H]1C [PF-06651600, reference compound]
IC50 [5]: > 10 µM

Remaining percentage ([6]; 0 min): 100.00%
Remaining percentage ([6]; 5 min): 75.87%
Remaining percentage ([6]; 15 min): 42.60%
Remaining percentage ([6]; 30 min): 29.98%
Remaining percentage ([6]; 45 min): 17.88%
CLint scaled at 1 µM ([6]; rat, liver microsomes, pH 7.4, rat liver microsomes, read-out: Clint): 133 mL/min/kg
half-life at 1 µM ([6]; rat, liver microsomes, pH 7.4, rat liver microsomes, read-out: T1/2): 18.7 min
SMILES: O=C(c1ccc(F)cc1)C1CCN(CCn2c(=O)[nH]c3ccccc3c2=O)CC1 [ketanserin, reference compound]

IC50 (JAK1): 1.11 µM
IC50 (JAK2): 1.16 µM
IC50 (JAK3; ATP concentration 1 mM): 0.0144 µM
IC50 (JAK3; ATP concentration Km): 0.0059 µM
IC50 (TYK2): 0.335 µM
IC50 ([1]; Homo sapiens, Jurkat): 2.64 µM
IC50 ([2]; Homo sapiens, HuT78, 72 hours): 1.09 µM
IC50 ([3]; Homo sapiens, U-937, 72 hours): 0.0875 µM
IC50 ([4]; Homo sapiens, K562, 72 hours): 1.86 µM
SMILES: C=CC(=O)Nc1cc(Nc2ncc(Cl)c(O[C@@H]3CO[C@H]4[C@@H]3OC[C@H]4O)n2)ccc1N1CCOCC1 [LS 5-66]
JAK3 kinase inhibitory activity and selectivity (in words) (JAK3; summary of Table 3, activity maintained at ATP 1 mM): strong and selective JAK3 kinase inhibitory activity
